Like-named read-outs stand apart in the source and are kept apart here.
How the values were obtained:
[1] = molecular target: BTK enzyme (recombinant full-length BTK, hBTK) (Homo sapiens (Human), UniProt Q06187); test: BTK enzymatic activity LANCE TR-FRET assay; format: biochemical; conditions: 50 pM hBTK, 25 μM ATP, 2 μM biotin-A5-peptide; compound range 1 μM to 0.017 nM; read-out: BTK binding IC50
[2] = system: adenosine uptake into HeLa cells; test: [3H]Adenosine uptake assay in HeLa cells; format: cell-based; conditions: compound range 10 μM to 0.032 nM
In short: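 HeLa cells in HBSS + 5% FBS were preincubated 30 min at ambient temperature with compound (ten-point 1:3 series, 10 µM–[…] final), then given [3H]adenosine (added as a 500 nM solution) for 60 min. Cell-associated label was read by scintillating-plate proximity counting; IC50 from 4-parameter fit of cps versus log concentration.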

[3] = Homo sapiens, HeLa, [3H]adenosine accumulation in HeLa cells, read-out: ADU inhibition IC50
[4] = [3H]adenosine accumulation in HeLa cells, read-out: ADU inhibition IC50

Sequence of BTK enzyme (recombinant full-length BTK, hBTK) (Q06187 whole entry): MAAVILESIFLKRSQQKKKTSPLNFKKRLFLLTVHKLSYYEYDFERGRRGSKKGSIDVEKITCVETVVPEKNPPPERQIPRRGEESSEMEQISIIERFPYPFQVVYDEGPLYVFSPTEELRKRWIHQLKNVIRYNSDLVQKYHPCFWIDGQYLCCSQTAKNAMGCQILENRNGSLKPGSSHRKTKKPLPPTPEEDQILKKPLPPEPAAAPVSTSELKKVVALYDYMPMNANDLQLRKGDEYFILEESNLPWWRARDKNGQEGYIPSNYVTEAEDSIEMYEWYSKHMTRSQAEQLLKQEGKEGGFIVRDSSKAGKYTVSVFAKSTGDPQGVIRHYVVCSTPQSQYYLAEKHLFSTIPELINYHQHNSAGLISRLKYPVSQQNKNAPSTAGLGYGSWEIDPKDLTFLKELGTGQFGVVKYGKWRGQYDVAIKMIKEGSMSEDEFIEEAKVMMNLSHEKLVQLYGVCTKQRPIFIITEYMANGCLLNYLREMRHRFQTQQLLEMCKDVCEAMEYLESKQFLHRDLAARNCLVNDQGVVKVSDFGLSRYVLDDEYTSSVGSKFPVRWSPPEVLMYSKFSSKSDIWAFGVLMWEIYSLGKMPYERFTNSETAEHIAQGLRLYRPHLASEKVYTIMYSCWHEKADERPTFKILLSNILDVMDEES

Row | Compound | IC50 [1] [nM] | IC50 [2, 3] [nM] | IC50 [2, 4] [nM] | IC50 ([2]; Homo sapiens, HeLa, read-out: ADU inhibition IC50 (nM), [3H]adenosine accumulation in HeLa cells) [nM] | IC50 ([2]; read-out: ADU inhibition IC50, [3H]adenosine accumulation in HeLa cells) [nM]
1 | C[C@@](O)(c1cccc(C(F)(F)F)c1)c1ccc(-c2nc([C@@H]3CC[C@H]4CCC(=O)N4C3)n3ccnc(N)c23)c(C(F)F)c1 [Example 80, (6R,8aS)-6-{8-amino-1-[2-(difluoromethyl)-4-{(1S)-1-hydroxy-1-[3-(trifluoromethyl)phenyl]ethyl}phenyl]imidazo [1,5-a]pyrazin-3-yl}-hexahydroindolizin-3(2H)-one] | 808 | 1730 | – | – | –
2 | C[C@](O)(c1cccc(C(F)(F)F)c1)c1ccc(-c2nc([C@@H]3CC[C@H]4CCC(=O)N4C3)n3ccnc(N)c23)c(C(F)F)c1 [Example 81, (6R,8aS)-6-{8-amino-1-[2-(difluoromethyl)-4-{(1R)-1-hydroxy-1-[3-(trifluoromethyl)phenyl]ethyl}phenyl]imidazo [1,5-a]pyrazin-3-yl}hexahydroindolizin-3(2H)-one] | 1000 | 684 | – | – | –
3 | C[C@](O)(c1ccc(-c2nc([C@@H]3CC[C@H]4CCC(=O)N4C3)n3ccnc(N)c23)cc1)c1cccc(C2CCC2)c1 [Example 82, (6R,8aS)-6-(8-amino-1-{4-[(1S)-1-(3-cyclobutylphenyl)-1-hydroxyethyl]phenyl]imidazo[1,5-a]pyrazin-3-yl)hexahydroindolizin-3(2H)-one] | 4.7 | 746 | – | – | –
4 | C[C@@](O)(c1ccc(-c2nc([C@@H]3CC[C@H]4CCC(=O)N4C3)n3ccnc(N)c23)cc1)c1cccc(C2CCC2)c1 [Example 83, (6R,8aS)-6-(8-amino-1-{4-[(1R)-1-(3-cyclobutylphenyl)-1-hydroxyethyl]phenyl}imidazo[1,5-a]pyrazin-3-yl)hexahydroindolizin-3(2H)-one] | 0.12 | 1330 | – | – | –
5 | C[C@](O)(c1ccc(-c2nc([C@@H]3CC[C@H]4CCC(=O)N4C3)n3ccnc(N)c23)cc1)c1cccc(C#N)c1 [Example 84, 3-[(1S)-1-(4-{8-amino-3-[(6R,8aS)-3-oxooctahydroindolizin-6-yl]imidazo[1,5-a]pyrazin-1-yl}phenyl)-1-hydroxyethyl]benzonitrile] | 1000 | 2380 | – | – | –
6 | C[C@@](O)(c1ccc(-c2nc([C@@H]3CC[C@H]4CCC(=O)N4C3)n3ccnc(N)c23)cc1)c1cccc(C#N)c1 [Example 85, 3-[(1R)-1-(4-{8-amino-3-[(6R,8aS)-3-oxooctahydroindolizin-6-yl]imidazo[1,5-a]pyrazin-1-yl}phenyl)-1-hydroxyethyl]benzonitrile] | 23.4 | 3530 | – | – | –
7 | Nc1nccn2c([C@@H]3CC[C@H]4CCC(=O)N4C3)nc(-c3ccc(C(O)(c4cccc(C(F)(F)F)c4)C4CC4)cc3)c12 (stereo partly drawn) [Example 86, (6R,8aS)-6-[8-amino-1-(4-{cyclopropyl(hydroxy)[3-(trifluoromethyl)phenyl]methyl}phenyl)imidazo [1,5-a]pyrazin-3-yl]hexahydroindolizin-3(2H)-one] | 1000 | – | 589 | – | –
8 | Nc1nccn2c([C@@H]3CC[C@H]4CCC(=O)N4C3)nc(-c3ccc(C(O)(c4cccc(C(F)(F)F)c4)C4CC4)cc3)c12 (stereo partly drawn) [Example 87, (6R,8aS)-6-[8-amino-1-(4-{cyclopropyl(hydroxy)[3-(trifluoromethyl)phenyl]methyl}phenyl)imidazo [1,5-a]pyrazin-3-yl]hexahydroindolizin-3(2H)-one] | 123 | – | 1580 | – | –
9 | CC(O)(c1cccc(C(F)(F)F)c1)c1ccc(-c2nc([C@@H]3CC[C@H]4CCC(=O)N4C3)n3ccnc(N)c23)c(C2CC2)c1 (stereo partly drawn) [Example 88, (6R,8aS)-6-[8-amino-1-(2-cyclopropyl-4-{1-hydroxy-1-[3-(trifluoromethyl)phenyl]ethyl}phenyl)imidazo [1,5-a]pyrazin-3-yl]hexahydroindolizin-3(2H)-one] | 576 | 1100 | – | – | –
10 | CO[C@](C)(c1ccc(-c2nc([C@@H]3CC[C@H]4CCC(=O)N4C3)n3ccnc(N)c23)cc1)c1cccc(C(F)(F)F)c1 [Example 89, (6R,8aS)-6-[8-amino-1-(4-{(1R)-1-methoxy-1-[3-(trifluoromethyl)phenyl]ethyl}phenyl)imidazo [1,5-a]pyrazin-3-yl]hexahydroindolizin-3(2H)-one] | 1000 | 3490 | – | – | –
11 | CO[C@@](C)(c1ccc(-c2nc([C@@H]3CC[C@H]4CCC(=O)N4C3)n3ccnc(N)c23)cc1)c1cccc(C(F)(F)F)c1 [Example 90, (6R,8aS)-6-[8-amino-1-(4-{(1S)-1-methoxy-1-[3-(trifluoromethyl)phenyl]ethyl}phenyl)imidazo [1,5-a]pyrazin-3-yl]hexahydroindolizin-3(2H)-one] | 1000 | 969 | – | – | –
12 | CCc1cccc([C@@](C)(O)c2ccc(-c3nc([C@@H]4CC[C@H]5CCC(=O)N5C4)n4ccnc(N)c34)cc2)c1 [Example 92, (6R,8aS)-6-(8-amino-1-{4-[(1S)-1-(3-ethylphenyl)-1-hydroxyethyl]phenyl}imidazo[1,5-a]pyrazin-3-yl)hexahydroindolizin-3(2H)-one] | 0.48 | 619 | – | – | –
13 | NC(=O)C(O)(c1ccc(-c2nc([C@@H]3CC[C@H]4CCC(=O)N4C3)n3ccnc(N)c23)cc1)c1cccc(C(F)(F)F)c1 (stereo partly drawn) [Example 96, 2-(4-{8-amino-3-[(6R,8aS)-3-oxooctahydroindolizin-6-yl]imidazo[1,5-a]pyrazin-1-yl}phenyl)-2-hydroxy-2-[3-(trifluoromethyl)phenyl] acetamide] | 576 | – | – | 7140 | –
14 | NC(=O)C(O)(c1ccc(-c2nc([C@@H]3CC[C@H]4CCC(=O)N4C3)n3ccnc(N)c23)cc1)c1cccc(C(F)(F)F)c1 (stereo partly drawn) [Example 97, 2-(4-{8-amino-3-[(6R,8aS)-3-oxooctahydroindolizin-6-yl]imidazo[1,5-a]pyrazin-1-yl}phenyl)-2-hydroxy-2-[3-(trifluoromethyl)phenyl] acetamide] | 894 | – | – | – | 10000

Second part, led by results:

Row | IC50 [1] [nM] | IC50 [2, 3] [nM] | IC50 [2, 4] [nM] | Compound | IC50 ([2]; Homo sapiens, HeLa, read-out: ADU inhibition IC50 (nM), [3H]adenosine accumulation in HeLa cells) [nM] | IC50 ([2]; read-out: ADU inhibition IC50, [3H]adenosine accumulation in HeLa cells) [nM]
15 | 0.15 | 1380 | – | CCc1cccc([C@](C)(O)c2ccc(-c3nc([C@@H]4CC[C@H]5CCC(=O)N5C4)n4ccnc(N)c34)cc2)c1 [Example 93, (6R,8aS)-6-(8-amino-1-(4-[(1R)-1-(3-ethylphenyl)-1-hydroxyethyl]phenyl}imidazo[1,5-a]pyrazin-3-yl)hexahydroindolizin-3(2H)-one] | – | –
16 | 201 | 800 | – | C[C@](O)(c1ccc(-c2nc([C@@H]3CC[C@H]4CCC(=O)N4C3)n3ccnc(N)c23)cc1)c1cccc(OC2CC2)c1 [Example 94, (6R,8aS)-6-[8-amino-1-(4-{(1S)-1-[3-(cyclopropyloxy)phenyl]-1-hydroxyethyl}phenyl)imidazo[1,5-a]pyrazin-3-yl]hexahydroindolizin-3(2H)-one] | – | –
17 | 1.8 | 1980 | – | C[C@@](O)(c1ccc(-c2nc([C@@H]3CC[C@H]4CCC(=O)N4C3)n3ccnc(N)c23)cc1)c1cccc(OC2CC2)c1 [Example 95, (6R,8aS)-6-[8-amino-1-(4-{(1R)-1-[3-(cyclopropyloxy)phenyl]-1-hydroxyethyl}phenyl)imidazo[1,5-a]pyrazin-3-yl]hexahydroindolizin-3(2H)-one] | – | –
18 | 0.28 | 3170 | – | COc1cc(-c2nc([C@@H]3CC[C@H]4CCC(=O)N4C3)n3ccnc(N)c23)ccc1[C@](C)(O)c1cccc(C2CC2)c1 [Example 98, (6R,8aS)-6-(8-amino-1-{4-[(1R)-1-(3-cyclopropylphenyl)-1-hydroxyethyl]-3-methoxyphenyl}imidazo [1,5-a]pyrazin-3-yl)hexahydroindolizin-3(2H)-one] | – | –
19 | 10.1 | 1190 | – | COc1cc(-c2nc([C@@H]3CC[C@H]4CCC(=O)N4C3)n3ccnc(N)c23)ccc1[C@@](C)(O)c1cccc(C2CC2)c1 [Example 99, (6R,8aS)-6-(8-amino-1-{4-[(1S)-1-(3-cyclopropylphenyl)-1-hydroxyethyl]-3-methoxyphenyl}imidazo [1,5-a]pyrazin-3-yl)hexahydroindolizin-3(2H)-one] | – | –
20 | 17.4 | 311 | – | CC(O)(c1cccc(C(F)(F)F)c1)c1ccc(-c2nc([C@@H]3CC[C@H]4CCC(=O)N4C3)n3ccnc(N)c23)c(Cl)c1 (stereo partly drawn) [Example 100, (6R,8aS)-6-[8-amino-1-(2-chloro-4-{1-hydroxy-1-[3-(trifluoromethyl)phenyl]ethyl}phenyl)imidazo [1,5-a]pyrazin-3-yl]hexahydroindolizin-3(2H)-one] | – | –
21 | 774 | 371 | – | C[C@](O)(c1cccc(C(F)(F)F)c1)c1ccc(-c2nc([C@@H]3CC[C@H]4CCC(=O)N4C3)n3ccnc(N)c23)c(F)c1 [Example 101, (6R,8aS)-6-[8-amino-1-(2-fluoro-4-{(1S)-1-hydroxy-1-[3-(trifluoromethyl)phenyl]ethyl}phenyl)imidazo [1,5-a]pyrazin-3-yl]hexahydroindolizin-3(2H)-one] | – | –
22 | 1.6 | 1680 | – | C[C@@](O)(c1cccc(C(F)(F)F)c1)c1ccc(-c2nc([C@@H]3CC[C@H]4CCC(=O)N4C3)n3ccnc(N)c23)c(F)c1 [Example 102, (6R,8aS)-6-[8-amino-1-(2-fluoro-4-{(1R)-1-hydroxy-1-[3-(trifluoromethyl)phenyl]ethyl}phenyl)imidazo [1,5-a]pyrazin-3-yl]hexahydroindolizin-3(2H)-one] | – | –
23 | 1000 | 487 | – | Cc1cc([C@@](C)(O)c2cccc(C(F)(F)F)c2)ccc1-c1nc([C@@H]2CC[C@H]3CCC(=O)N3C2)n2ccnc(N)c12 [Example 103, (6R,8aS)-6-[8-amino-1-(4-{(1R)-1-hydroxy-1-[3-(trifluoromethyl)phenyl]-ethyl}-2-methylphenyl)imidazo [1,5-a]pyrazin-3-yl]hexahydroindolizin-3(2H)-one] | – | –

Source: patent publication US10214546B2, “Btk inhibitors” (MERCK SHARP & DOHME CORP., priority 2014, dated 2019)
